Series [1] concerns the target EGFR^WT (Homo sapiens, UniProt P00533). As to the kind of experiment: EGFRWT kinase inhibitory assay (HTRF). Background: In TR-FRET formats the signal depends on donor and acceptor labels being close together.
Procedure: (§1) In vitro EGFR inhibitory activity was assessed using Homogeneous time-resolved fluorescence (HTRF) assay[64] as described in Supplementary data.
(§2) The IC50 values were calculated using the nonlinear regression fitting models (Graph Pad, Prism Version 5).
(§3) EGFRWT and EGFRT790M kinase inhibitory assay
(§4) Homogeneous time resolved fluorescence (HTRF) assay was applied in this test.
(§5) EGFRWT, EGFRT790M (Sigma). firstly, the EGFRWT and/or EGFRT790M and their substrates were incubated with the tested compounds in enzymatic buffer for 5 min.
(§6) into the reaction mixture to allow starting the enzymatic reaction. The assay was conducted for 30 min at room temperature. The reaction was stopped by addition of detection reagents which contain
(§7) GraphPad Prism 5.0. Three independent experiments were performed for each concentration.
The target of series [2] is EGFR^T790M (Homo sapiens, UniProt P00533, T790M). As to the kind of experiment: EGFRT790M kinase inhibitory assay (HTRF).
Procedure: as §1, §2, §3, §4, §5, §6, §7
In series [3] the test system is prostate cancer (PC-3). As to the kind of experiment: MTT antiproliferative assay, PC-3. Conditions: Homo sapiens; for inhibition at 100 µM: read-out: Growth inhibition (%) PC-3; for IC50: read-out: IC50 PC-3.
Procedure: (§8) Preliminary screening against the cancer cell lines was performed, using doxorubicin as a reference drug at doses of 100 μM.
(§9) In vitro cytotoxicity was carried out using MTT assay protocol[63] as described in Supplementary data.
(§10) proliferative activity was assessed quantitatively as follows;
(§11) Human cancer cell lines were dropped in 96-well plates at a density of 3-8 × 10^3 cells/well.
(§12) growth medium was exchanged with 0.1 ml of fresh medium containing graded concentrations of the test compounds to be or equal DMSO and incubated for two days. Then 10 μl MTT solution (0.5 mg/ml) was added to each well, and the cells were incubated for additional 4 h. The crystals of MTT-formazan were dissolved in 100 μl of DMSO; the absorbance of each well was measured at 490 nm using an automatic ELISA reader system (TECAN, CHE). The IC50 values were calculated using the nonlinear regression fitting models (Graph Pad, Prism Version 5). The data represented the mean of three independent experiments in triplicate and were expressed as means
(§13) The results were expressed as growth inhibitory concentration (IC50) values and
The subject of series [4] is lung cancer (A-549). As to the kind of experiment: MTT antiproliferative assay, A-549. To be noted: Homo sapiens; for inhibition at 100 µM: A549, read-out: Growth inhibition (%) A549; for IC50: A549, read-out: IC50 A-549, MTT, mean of at least three experiments. In general terms: Tetrazolium assays rely on reduction of a dye to a coloured formazan, in cell work by metabolically active cells.
Procedure: as §8, §9, §10, §11, §12, §13

The subject of series [5] is colon cancer (HCT-116). As to the kind of experiment: MTT antiproliferative assay, HCT-116. Conditions: for inhibition at 100 µM / IC50: Homo sapiens; for inhibition at 100 µM: HCT-116, read-out: Growth inhibition (%) HCT-116; for IC50: HCT-116, read-out: IC50 HCT-116; for Cytotoxic activity against HCT-116: MTT.
Procedure: as §8, §9, §10, §11, §12, §13
The subject of series [6] is breast cancer (MCF-7). As to the kind of experiment: MTT antiproliferative assay, MCF-7. Conditions: Homo sapiens; for inhibition at 100 µM: MCF7, read-out: Growth inhibition (%) MCF-7.
Procedure: as §8, §9, §10, §11, §12, §13
Series [7] deals with caspase-3 in PC-3 cells. As to the kind of experiment: Caspase-3 determination (ELISA). It counts as cell-based, human.
For series [8], the system named is PC-3 cells. As to the kind of experiment: Annexin V-FITC/PI apoptosis assay. It counts as cell-based, human. Conditions: PC-3, 7.98 µM, 24 h. How it is done:
The results were depicted in (Figure 6 and Supplementary data).
The effect of compound 8a on cell apoptosis was investigated as described in Supplementary data[76–78].
4.1.3. Annexin V-FITC apoptosis assay.
To detect the apoptosis induced by compound 8a, PC-3 cells were seeded and incubated overnight […]
the negative control. After that, the cells were collected and washed with PBS two successive times. The cells were exposed to centrifugation. Apoptosis detection kit (BD Biosciences, San Jose, CA) was used in this test. According to the manufacturer's protocol the cells were stained by Annexin V-FITC and propidium iodide (PI) in the binding buffer for 20min at room temperature in the dark. Using a flow cytometer, Annexin V-FITC and PI binding were analyzed. flowjo software was used to analyze the frequencies in all quadrants.
Cell cycle distribution (%)

Series [9] relates to PC-3 cells. As to the kind of experiment: Cell cycle analysis by flow cytometry (PI staining). It counts as cell-based, human. On the technique in general: A flow cytometer gives signals particle by particle.

SMILES strings stand for the structures. Where “and” joins values, the source holds several entries; their conditions need not be identical. Equal values may be shown once. Entries after “also recorded” stand apart in the source; their conditions may differ.

Chain of EGFR^WT (P00533 25-1210): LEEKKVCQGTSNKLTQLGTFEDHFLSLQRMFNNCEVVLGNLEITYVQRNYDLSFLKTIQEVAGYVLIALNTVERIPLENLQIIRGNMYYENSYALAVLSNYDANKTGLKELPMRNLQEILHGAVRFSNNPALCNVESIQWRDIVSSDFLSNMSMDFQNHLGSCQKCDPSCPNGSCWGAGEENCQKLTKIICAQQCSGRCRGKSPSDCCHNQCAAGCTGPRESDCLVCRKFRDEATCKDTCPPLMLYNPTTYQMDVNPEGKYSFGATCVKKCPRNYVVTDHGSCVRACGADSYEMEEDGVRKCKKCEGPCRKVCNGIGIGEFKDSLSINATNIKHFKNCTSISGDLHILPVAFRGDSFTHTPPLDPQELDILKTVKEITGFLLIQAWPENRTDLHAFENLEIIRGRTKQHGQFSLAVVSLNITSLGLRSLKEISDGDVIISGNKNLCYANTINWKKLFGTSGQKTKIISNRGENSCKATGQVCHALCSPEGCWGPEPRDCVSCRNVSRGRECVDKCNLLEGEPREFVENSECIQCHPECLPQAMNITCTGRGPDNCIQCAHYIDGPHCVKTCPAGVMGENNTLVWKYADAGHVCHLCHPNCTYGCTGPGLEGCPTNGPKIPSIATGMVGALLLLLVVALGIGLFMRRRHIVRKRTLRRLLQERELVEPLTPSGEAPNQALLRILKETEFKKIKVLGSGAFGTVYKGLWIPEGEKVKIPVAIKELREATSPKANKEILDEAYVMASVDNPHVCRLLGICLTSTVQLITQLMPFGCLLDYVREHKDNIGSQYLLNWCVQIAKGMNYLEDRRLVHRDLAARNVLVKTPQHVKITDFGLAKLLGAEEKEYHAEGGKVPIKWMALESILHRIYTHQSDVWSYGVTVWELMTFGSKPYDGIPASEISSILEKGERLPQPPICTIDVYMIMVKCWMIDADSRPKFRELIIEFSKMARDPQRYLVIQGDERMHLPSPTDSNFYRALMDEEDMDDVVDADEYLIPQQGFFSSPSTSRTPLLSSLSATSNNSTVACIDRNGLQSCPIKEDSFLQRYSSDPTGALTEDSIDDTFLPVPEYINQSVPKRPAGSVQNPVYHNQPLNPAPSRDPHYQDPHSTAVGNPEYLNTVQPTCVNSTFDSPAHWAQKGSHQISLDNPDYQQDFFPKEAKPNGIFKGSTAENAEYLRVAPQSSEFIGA
Chain of EGFR^T790M (P00533 25-1210 T790M): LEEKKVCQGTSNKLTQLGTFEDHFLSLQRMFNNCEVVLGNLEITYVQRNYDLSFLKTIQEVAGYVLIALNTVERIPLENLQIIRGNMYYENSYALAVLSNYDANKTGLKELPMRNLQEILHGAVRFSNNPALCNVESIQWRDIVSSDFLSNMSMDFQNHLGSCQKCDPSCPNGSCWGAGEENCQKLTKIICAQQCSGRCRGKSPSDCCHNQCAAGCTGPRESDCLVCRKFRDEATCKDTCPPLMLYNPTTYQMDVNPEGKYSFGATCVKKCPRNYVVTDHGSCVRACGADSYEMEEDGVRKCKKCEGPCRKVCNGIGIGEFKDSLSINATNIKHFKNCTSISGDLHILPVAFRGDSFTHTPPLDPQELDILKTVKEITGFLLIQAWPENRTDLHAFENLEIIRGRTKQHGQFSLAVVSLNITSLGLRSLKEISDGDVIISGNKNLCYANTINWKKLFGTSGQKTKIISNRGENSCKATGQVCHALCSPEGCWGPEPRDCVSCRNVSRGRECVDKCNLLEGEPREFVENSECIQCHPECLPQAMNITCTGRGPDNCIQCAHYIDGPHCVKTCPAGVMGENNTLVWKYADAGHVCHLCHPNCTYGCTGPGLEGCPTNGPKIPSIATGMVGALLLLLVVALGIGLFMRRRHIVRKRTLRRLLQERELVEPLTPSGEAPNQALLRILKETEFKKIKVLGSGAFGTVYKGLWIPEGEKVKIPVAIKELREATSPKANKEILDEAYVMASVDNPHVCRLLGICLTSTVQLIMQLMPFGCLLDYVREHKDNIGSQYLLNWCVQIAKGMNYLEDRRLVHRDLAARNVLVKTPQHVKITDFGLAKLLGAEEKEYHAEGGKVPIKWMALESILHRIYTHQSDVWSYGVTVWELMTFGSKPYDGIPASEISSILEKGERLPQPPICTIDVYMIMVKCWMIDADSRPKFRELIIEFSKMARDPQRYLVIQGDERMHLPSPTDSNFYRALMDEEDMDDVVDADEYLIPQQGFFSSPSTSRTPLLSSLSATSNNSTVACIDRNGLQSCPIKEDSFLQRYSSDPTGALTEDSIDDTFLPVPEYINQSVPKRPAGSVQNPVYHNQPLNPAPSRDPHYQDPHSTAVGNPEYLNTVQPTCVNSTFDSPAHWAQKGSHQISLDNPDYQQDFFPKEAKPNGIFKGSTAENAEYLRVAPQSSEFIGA

The IC50 is the concentration that inhibits the measured activity by half. One may read the inhibition as the drop in the measured response relative to a control, in per cent. As a reminder, the melting point is the temperature, or range, at which the solid turns liquid. For `COc1cc(-c2cc(-c3ccc(C)cc3)nc3nc4[nH]c5ccccc5c(=O)n4c(=O)c23)cc(OC)c1OC` [Compound 8d, 2-(p-Tolyl)-4–(3,4,5-trimethoxyphenyl)-5H-pyrido[2',3':4,5] pyrimido[2,1-b]quinazoline-5,7(12H)-dione], the melting point is above 300 °C. Further, in [1], the half-inhibitory concentration (IC50) is 0.419 ± 0.029 µM. The same molecule came in with a half-maximal inhibitory concentration (IC50) in series [2] of 0.29 ± 0.023 µM. Moreover, in series [3], the inhibition at 100 µM turned out to be 95% and the half-maximal inhibitory concentration (IC50) came out at 7.12 ± 2 µM. Besides, in series [4], the inhibition at 100 µM stood at 97% and the IC50 turned out to be 7.23 ± 2.1 µM. For the same molecule, in series [5], the inhibition at 100 µM worked out at 78%, the IC50 is 70.2 ± 2 µM and the “Cytotoxic activity against HCT-116” value was “mild cytotoxic activity”. In addition, the inhibition at 100 µM in [6] stood at 15%.

Consider `Cc1ccc(-c2cc(-c3ccc(Cl)cc3)nc3nc4[nH]c5ccccc5c(=O)n4c(=O)c23)cc1` [Compound 8a, 2–(4-Chlorophenyl)-4-(p-tolyl)-5H-pyrido[2',3':4,5]pyrimido [2,1-b] quinazoline-5,7(12H)-dione], for which, in series [7] (24 h), the “Increase in caspase-3 level vs control cells” value was found to be 5.3 fold. In addition, the Caspase-3 level in series [7] (24 h treatment, 8a at 3.04 µM, control 84.24, mean ± SEM) is 452.3 pg/mL and 452.3 ± 10.5 pg/mL. The IC50 in [1] was 0.099 ± 0.007 µM; in [2], 0.123 ± 0.01 µM; in series [3] it was 7.98 ± 2.4 µM; in [4] it was 16.2 ± 2.4 µM; in [5], 25.6 ± 1.3 µM. The inhibition at 100 µM came out at 98% in [3], 90% in series [4], 84% in series [5] and 32% in series [6]. For the same molecule, in series [8], the “Increase in early apoptosis ratio vs control” value came out at 32 fold. In addition, in series [8], the “Increase in late apoptosis ratio vs control” value was determined as 150 fold. This molecule registered a Late apoptosis in [8] (control 0.15%) of 22.49%. In addition, the Early apoptosis in [8] (control 0.43%) was found to be 13.92%. Moreover, the Necrosis in [8] (control 1.20) was found to be 4.65%. Moreover, the Total apoptosis in [8] (control 1.78) worked out at 41.06%. The “Cytotoxic activity against HCT-116” value in series [5] is recorded as “mild cytotoxic activity”. For the same molecule, the “Increase of cell population at %S vs control” value in series [9] (PC-3, 7.98 µM, 24 h) turned out to be 1.3 folds. Moreover, the “Increase of cell population at pre-G1 vs control” value in [9] (PC-3, 7.98 µM, 24 h) is listed as 22 folds. Also, the “Cell cycle distribution %Pre-G1” value in series [9] (PC-3, 7.98 µM, 24 h, control 1.78%) stood at 41.06%. The “Cell cycle distribution %G2-M” value in [9] (PC-3, 7.98 µM, 24 h, control 9.75%) is reported as 4.93%. In addition, the “Cell cycle distribution %S” value in series [9] (PC-3, 7.98 µM, 24 h, control 41.03%) was 53.69%. Also, the “Cell cycle distribution %G0-G1” value in series [9] (PC-3, 7.98 µM, 24 h, control 49.22%) is 41.38%. Besides, the “Cell cycle arrest phase” value in series [9] (PC-3 cells) is on record as “arrested the cell cycle at pre-G1 phase; also recorded: arrest the PC-3 cell line at pre-G1; also recorded: arrested the cell cycle at the pre-G1 phase”.

In the case of `NNc1nc2nc(-c3ccc(Cl)cc3)cc(-c3ccc(Cl)cc3Cl)c2c(=O)[nH]1` [Compound 9a, 7-(4-Chlorophenyl)-5–(2,4-dichlorophenyl)-2-hydrazineylpyrido[2,3-d]pyrimidin-4(3H)-one], the melting point lay within 265 to 267 °C. The same molecule registered an IC50 in series [1] of 0.594 ± 0.042 µM. This molecule also had an IC50 in series [2] of 0.571 ± 0.046 µM. Moreover, in series [3], the inhibition at 100 µM was 90% and the concentration for half-maximal inhibition (IC50) was determined as 9.26 ± 2.4 µM. Also, the inhibition at 100 µM in series [4] turned out to be 42%. In addition, the inhibition at 100 µM in series [5] amounted to 89%. Also, in series [6], the inhibition at 100 µM worked out at 68%. The IC50 in series [6] (MCF7, read-out: IC50 MCF-7) came out at 42 ± 1.2 µM.

The record behind these values is publication PMC9291687.
